We go through five molecules from patent US11039997B2, “Cosmetic, dermatic, protective compositions comprising phospholipids, lecithins with peptides and at least one acetylating compound” (priority 2005, dated 2021).

In test [1] the test system is washed aspirinated platelets. Nature of the test: Binding of [3H]alkyl-paf / [3H]alkyl-lyso paf to washed aspirinated platelets and formation of AAGPC, LA-paf (FIG. 2). The class given is cell-based, human. To be noted: FIG. 2C; normolipidemic platelets, [3H]-alkyl-lyso paf 0.065 nM, 40 nM antagonist, 0.25% BSA. As to the method: These women with “OMIH”-syndrome show overweight (aged 34±11 years, BMI: […]), raised LDL (167±15 mg/dl, HDL: 76±41 mg/dl) and triglyceride levels (206±27 mg/dl) borderline hypertension (125±13/88±10 mmHg) and disturbed glucose tolerance (1 h: 170±61 mg/dl).
Ginkgoloides with free albumin (BSA) inhibited here the binding of [^3H]alkyl-paf to “OMIH”-platelets after three washes (FIG. 2 A+B). […] Normolipidemic platelets do nearly not incorporate [^3H]alkyl-paf or [^3H]alkyl-lyso paf and form nearly no AAGPC and LA-paf in the presence of Ginkgoloides and free albumin (FIG. 2C).
AAGPC and LA-paf are chemically alkyl-acyl-sn-glycero-phosphocholines. […] Values are fmol per 10^8 platelets and are means±1 S.D. from three different experiments as described (R. Korth et al. Chem. Phys. Lipids 70(1994), 109-119).

Test [2] concerns the target T1, paf receptors of formaldehyde-treated platelets (Homo sapiens, UniProt P25105).
T1 construct: endogenous in cells; host or cells: washed platelets fixed with 1% formaldehyde for 30 min
Nature of the test: Binding of [3H]alkyl-paf to formaldehyde-fixed platelets (FIGS. 6 and 7). The following applies: 30 min; for inhibition of bound [3H]alkyl-paf to stiffened platelets: FIG. 7, [3H]alkyl-paf 0.65 nM, 20° C., n=4. The protocol:
An extract of whole blood, namely “biological paf” replaces [^3H]alkyl-paf out of the binding and bind to similar alkyl receptors. This competitive inhibition is paralleled with similar effects of synthetic paf and with Ginkgoloides wherein WEB 2086 is used here as the known guiding substance for chlorobenzo(dia)zepines.
“Biological paf” is used here for the first time as non-separated ethanol extract of whole blood (without HPLC). This dry extract is diluted before it is quantified using aggregation of rabbit platelets in the presence of aspirin and CP/CPK. The novel methods allow for the first time testings without albumin so that alkyl ligands with lower cell affinity compared to albumin can bind in a detectable manner. For example, alkyl lipids without the choline group (alkyl-LPA) bind otherwise in deeper regions of the membranes of untreated cells and/or are rapidly incorporated into free albumin. In addition, the method is independent from calcium so that also calcium-independent alkyl ligands can be inhibited here (e.g. lyso paf). The clinical success against alkyl ligands is thus supported and can be carried out by skilled persons.
The FIGS. 5 to 7 thus show the novel screening procedure solves a novel technical problem, namely the variety of damaging alkyl lipids. The quantification is easier using fixed cells as the difficult acetylation step of alkyl lipids is removed which is required for calcium dependent quantification methods. Using fixed cells, cell lines also labelled antibodies and/or soluble transport-binding proteins can be tested and produced.
(§1) FIGS. 5 to 7 investigated for the first time binding of [^3H]alkyl-paf or [^3H]acetyl group after treatment with formaldehyde (1%, 30 min) comparing different temperatures, indicated concentrations and said Ginkgoloides. The allosteric binding of [^3H]alkyl groups was reached only at 20° C. while [^3H]acetyl groups bound at 4° C. excluding allosteric effects.
Platelets were treated with formaldehyde (1%, 30 min, n=6). Values are expressed as bound [^3H]alkyl-paf to […]. […]

In test [3] the test system is metabolic syndrome mediated by LA-paf. To be noted: Wu et al. J. Int. Med. 246, 1999; cited from earlier work.
A further test concerns intact human platelets. Nature of the test: Lipoprotein-triggered catabolism of [3H]alkyl-paf and formation of AAGPC and LA-paf by intact platelets (FIG. 3). It is filed as cell-based. To be noted: FIG. 3 C+D; [3H]alkyl-paf 0.65 nM; apo B 0.1 mg/ml, VLDL 80 μg/ml. As to the method:
Only LDL but not ApoB and not VLDL overcome the protection by albumin (FIG. 3E versus 3D). […] In the presence (A+C) or absence (B) of washed platelets nearly no AAGPC with derivatives and products is formed. The acetylhydrolases form lyso paf and LDL, of apoB and VLDL also form lyso paf whereby the uptake of lyso paf is triggered by LDL.
[^3H]alkyl-lyso paf was stable in the albumin buffer as well (B: 0.25% BSA, 30 min, 20° C.). […] Overall, purified LDL-particles rather than isolated apoB trigger uptake and formation of AAGPC and/or LA-paf. Values are expressed as percent of added label bound to platelets. Cells were separated using vacuum filtration as described (R. Korth et al. Chem. Phys. Lipids 70, 109-119, 1994). Values were expressed as percent of added label. Values are means±1.S.D. of three different experiments.

A further test relates to human neutrophils. Nature of the test: Formation of labeled AAGPC+LA-paf by neutrophils (FIG. 4). The class given is cell-based. The following applies: 0.25% BSA. As to the method:
The non-differentiated washed blood leukocytes incorporate here [^3H]alkyl-paf with intermediate of [^3H]alkyl-lyso paf and form alkyl lipids (AAGPC+LA paf) in a saturated manner (A: 0.65 nM vs. B: 6.5 nM) wherein unlabelled paf fails to replace (B, 5 nM). Thus, at least one non-specific transport protein is indicated (e.g. acetylhydrolase) on undifferentiated cells. The less differentiated cells are invented here as a model for monocytes, endothelial cells, glia cells, cartilage cells, adipocytes, endogenous stem cells etc. The acetylhydrolases on plasma membranes of leukocytes remove alkyl lipids and these cells are then pre-activated, differentiated and ready to emigrate. Non-specific antagonists e.g. free albumin protect against alkyl ligands and compete with cells for binding of alkyl lipids. The fatty decline of cells in the entire organisms is clinically healed here. […]
Washed intact cells were incubated with normal or excess concentrations of [^3H]-alkyl-paf forming then the stable amount of AAGPC & LA (A: 0.65 nM or B: 6.5 nM). […] Values are expressed as percent of added label (2.5×10^6 cells/500μl, 0.25% BSA, n=3, see R.-M. Korth, Int. Arch. All. Imm. 113, p 460-464, 1997). […]

The target of test [4] is T1, paf receptors of formaldehyde-treated platelets. Nature of the test: Binding of [3H]acetyl paf to formaldehyde-fixed platelets at 4° C. (FIG. 5). The following applies: unlabeled paf 50 nM, [3H]acetyl paf 0.65 nM or 0.065 nM. The protocol: (FIG. 5D versus 5C). The allosteric alkyl effects are inhibited by stiffening of the membrane so that the scavenger-like allosteric configuration change of cells is shown as mentioned before. In contrast, the [^3H]acetyl group of paf binds at 4° C. to fixed cells treated prior to the last wash with formaldehyde to be subsequently cooled and stiffened (1%, 30 min, A+B). The acetyl group binds and covers paf receptors without allosteric upregulation so that acetylating compounds are using this effect in accordance with the invention.
as §1
Unlabeled paf (50 nM) competed showing specific binding of [^3H]acetyl paf. […] Next, [^3H]alkyl-paf failed binding to stiffened platelets at 4° C. showing moderate specific binding only at 20° C. (C: 0.65 nM, 30 min, 20° C.). […] Values are expressed as bound labelled ligands to 10^8 platelets. Platelets were separated with vacuum filtration and means±1 S.D. are from three experiments.

T1 sequence (P25105 whole entry): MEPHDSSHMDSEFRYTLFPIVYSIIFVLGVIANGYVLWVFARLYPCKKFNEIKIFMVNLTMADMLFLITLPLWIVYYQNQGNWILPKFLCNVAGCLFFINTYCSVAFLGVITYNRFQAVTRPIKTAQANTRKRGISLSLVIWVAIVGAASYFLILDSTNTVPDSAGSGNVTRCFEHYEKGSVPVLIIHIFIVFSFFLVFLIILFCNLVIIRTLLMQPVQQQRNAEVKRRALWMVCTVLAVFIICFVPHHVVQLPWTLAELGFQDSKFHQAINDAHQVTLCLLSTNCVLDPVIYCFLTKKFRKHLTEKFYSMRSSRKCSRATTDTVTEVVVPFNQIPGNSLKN

As for `Cc1nnc2n1-c1sc(CCC(=O)N3CCOCC3)cc1C(c1ccccc1Cl)=NC2` [WEB 2086], the “formation of cellular metabolites (AAGPC, LA-paf) from [3H]-alkyl-lyso paf” value in test [1] is “without relevant formation of indicated cellular metabolites”. For the same molecule, the “inhibition of bound [3H]alkyl-paf to stiffened platelets” value in test [2] is “inhibited”. Also, the “treatment of metabolic syndrome with thickening of the intima and borderline hypertension” value in test [3] is “successfully treated”.
Take ApoB: isolated apo B (Sigma Chemical): the “formation of lyso paf and cellular uptake” value with intact human platelets is “form lyso paf without cellular uptake”.
Consider `CCCCCCCCCCCCCCCCOC[C@H](COP(=O)([O-])OCC[N+](C)(C)C)OC(C)=O` [synthetic paf], for which the “competition with formation of AAGPC/LA-paf” value in the test on human neutrophils (unlabeled paf 5 nM, [3H]-alkyl-paf 0.65 nM or 6.5 nM, n=3) was “did not compete”. In addition, the “inhibition of bound [3H]alkyl-paf to stiffened platelets” value in test [2] is recorded as “inhibited at low concentrations”. Besides, in test [4], the “competition with [3H]acetyl paf binding” value was “competed”.
For “Purified albumin: free, delipidated albumin (BSA), representative non-specific antagonist”, in the test with human neutrophils, the “protection of intact cells as non-specific antagonist” value is “protected”.
`CC1C(=O)OC2C(O)C34C5CC(C(C)(C)C)C36C(OC(=O)C6O)OC4(C(=O)O5)C12O` (stereo not drawn) [BN 52021]: the “inhibition of bound [3H]alkyl-paf” value in test [2] (FIG. 6, platelets treated with formaldehyde 1%, 30 min 20° C.) is reported as “concentration-dependent inhibition”.
